Measurements reported in ChEMBL document CHEMBL4406826, “Discovery of δ-sultone-fused pyrazoles for treating Alzheimer's disease: Design, synthesis, biological evaluation and SAR studies” (Eur J Med Chem, 2019).
Calls of active or inactive are those of the source.

Key:
[1] = molecular target: Acetylcholinesterase (Electrophorus electricus) (UniProt O42275); test: Inhibition of electric eel AChE at 20 uM using acetylthiocholine iodide as substrate preincubated with enzyme for 20 mins followed by substrate addition by Ellman's method relative to control
Cholinesterase [2] = molecular target: T1, Cholinesterase (Equus caballus, UniProt P81908); test: Inhibition of equine serum BuChE using butyrylthiocholine iodide as substrate preincubated with enzyme for 20 mins followed by substrate addition by Ellman's method
[3] = molecular target: Cholinesterase (Equus caballus) (UniProt P81908); test: Mixed inhibition of equine serum BChE assessed as decrease in Vmax at 0.5 to 2 uM using varying levels of butyrylthiocholine iodide as substrate by Line weaver Burk reciprocal plot analysis
[4] = molecular target: Cholinesterase (Equus caballus) (UniProt P81908); test: Mixed inhibition of equine serum BChE assessed as increase in substrate Km at 0.5 to 2 uM using varying levels of butyrylthiocholine iodide as substrate by Line weaver Burk reciprocal plot analysis
[5] = molecular target: Cholinesterase (Equus caballus) (UniProt P81908); test: Reversible inhibition of equine serum BChE at 0.4 to 1 uM using varying levels of butyrylcholine iodide as substrate
[6] = Octanol-PBS buffer partition coefficient, log P of the compound incubated for 24 hrs measured at pH 7.4 by shake-flask method; assay type: physicochemical
[7] = Cytotoxicity against human HepG2 cells assessed as cell viability at 5 to 50 uM measured after 24 hrs by MTT assay; assay type: cell-based; conditions: read-out: Activity
[8] = Cytotoxicity against rat PC12 cells assessed as cell viability at 5 to 50 uM measured after 24 hrs by MTT assay; assay type: cell-based, PC-12; conditions: read-out: Activity
PC-12 = test: Neuroprotective activity against H2O2-induced cytotoxicity in rat PC12 cells assessed as increase in cell viability at 10 to 25 uM pretreated for 3 hrs followed by H2O2 stimulation in continuous presence of compound for 24 hrs by MTT assay relative to control; assay type: functional
Cholinesterase [9] = molecular target: T1, Cholinesterase; test: Inhibition of equine serum BChE using varying levels of butyrylthiocholine iodide as substrate by Line weaver Burk reciprocal plot analysis
[10] = molecular target: Cholinesterase (Equus caballus) (UniProt P81908); test: Mixed inhibition of equine serum BChE assessed as decrease in Vmax at 1 to 5 uM using varying levels of butyrylthiocholine iodide as substrate by Line weaver Burk reciprocal plot analysis
[11] = molecular target: Cholinesterase (Equus caballus) (UniProt P81908); test: Mixed inhibition of equine serum BChE assessed as increase in substrate Km at 1 to 5 uM using varying levels of butyrylthiocholine iodide as substrate by Line weaver Burk reciprocal plot analysis
[12] = molecular target: Cholinesterase (Equus caballus) (UniProt P81908); test: Non-competitive inhibition of equine serum BChE at 1 to 5 uM using varying levels of butyrylcholine iodide as substrate by Line weaver Burk reciprocal plot analysis
Acetylcholinesterase = Acetylcholinesterase (Electrophorus electricus, UniProt O42275); test: Inhibition of electric eel AChE using acetylthiocholine iodide as substrate preincubated with enzyme for 20 mins followed by substrate addition by Ellman's method
Chain of Acetylcholinesterase (O42275 whole entry): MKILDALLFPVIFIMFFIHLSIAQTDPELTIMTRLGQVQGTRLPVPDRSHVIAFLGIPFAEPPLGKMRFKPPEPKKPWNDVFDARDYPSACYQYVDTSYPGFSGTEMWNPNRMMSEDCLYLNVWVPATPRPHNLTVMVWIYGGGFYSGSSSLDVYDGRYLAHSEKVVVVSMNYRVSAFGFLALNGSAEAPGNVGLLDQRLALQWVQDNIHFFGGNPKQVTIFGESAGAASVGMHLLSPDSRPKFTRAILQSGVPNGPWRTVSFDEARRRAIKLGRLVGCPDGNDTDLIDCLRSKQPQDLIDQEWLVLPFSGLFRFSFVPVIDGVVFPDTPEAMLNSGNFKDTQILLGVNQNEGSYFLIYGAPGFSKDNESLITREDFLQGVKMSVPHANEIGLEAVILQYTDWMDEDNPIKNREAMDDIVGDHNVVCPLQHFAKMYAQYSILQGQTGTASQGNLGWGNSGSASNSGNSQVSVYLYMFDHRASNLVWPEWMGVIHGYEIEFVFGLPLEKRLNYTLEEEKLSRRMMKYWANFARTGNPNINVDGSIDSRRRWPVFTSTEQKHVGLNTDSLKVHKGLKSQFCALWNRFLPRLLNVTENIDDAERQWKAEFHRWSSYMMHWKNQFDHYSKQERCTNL

T1 sequence (P81908 whole entry): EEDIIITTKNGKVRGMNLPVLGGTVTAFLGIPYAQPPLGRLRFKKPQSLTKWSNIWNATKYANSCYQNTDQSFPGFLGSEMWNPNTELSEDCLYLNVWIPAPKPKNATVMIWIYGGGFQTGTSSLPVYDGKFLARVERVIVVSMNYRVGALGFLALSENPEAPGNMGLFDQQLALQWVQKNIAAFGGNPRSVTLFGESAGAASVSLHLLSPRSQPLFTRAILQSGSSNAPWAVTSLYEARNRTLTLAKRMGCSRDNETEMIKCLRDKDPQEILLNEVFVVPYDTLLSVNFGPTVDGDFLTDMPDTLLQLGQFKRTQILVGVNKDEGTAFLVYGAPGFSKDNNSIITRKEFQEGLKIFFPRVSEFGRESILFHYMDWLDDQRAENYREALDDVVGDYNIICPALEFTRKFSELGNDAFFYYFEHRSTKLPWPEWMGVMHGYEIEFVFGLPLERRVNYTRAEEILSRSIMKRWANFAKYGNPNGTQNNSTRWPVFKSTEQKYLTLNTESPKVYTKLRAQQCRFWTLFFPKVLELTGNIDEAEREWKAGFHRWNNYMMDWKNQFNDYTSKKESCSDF
Chain of Cholinesterase (Equus caballus) (P81908 whole entry): as above
Chain of Acetylcholinesterase (Electrophorus electricus) (O42275 24-633 limits assumed): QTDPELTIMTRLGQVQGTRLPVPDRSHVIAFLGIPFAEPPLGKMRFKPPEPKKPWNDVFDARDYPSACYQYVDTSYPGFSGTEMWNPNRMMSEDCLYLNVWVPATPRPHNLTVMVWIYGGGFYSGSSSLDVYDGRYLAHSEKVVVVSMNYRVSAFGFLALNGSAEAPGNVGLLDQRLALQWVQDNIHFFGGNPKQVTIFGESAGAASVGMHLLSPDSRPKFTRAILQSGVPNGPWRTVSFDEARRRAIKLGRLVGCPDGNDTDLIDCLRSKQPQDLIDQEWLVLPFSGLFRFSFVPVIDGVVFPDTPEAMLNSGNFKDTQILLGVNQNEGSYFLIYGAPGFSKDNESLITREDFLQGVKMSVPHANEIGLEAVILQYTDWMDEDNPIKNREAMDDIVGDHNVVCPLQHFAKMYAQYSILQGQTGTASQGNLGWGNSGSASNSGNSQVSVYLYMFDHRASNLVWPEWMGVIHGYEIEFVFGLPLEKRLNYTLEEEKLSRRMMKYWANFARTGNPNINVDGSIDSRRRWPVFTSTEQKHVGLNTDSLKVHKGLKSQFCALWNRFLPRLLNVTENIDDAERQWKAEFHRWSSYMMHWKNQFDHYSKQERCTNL

SMILES | inhibition [1] | IC50 (Cholinesterase [2]) | logD at 24 h [6] | further results
COc1ccc(-c2nn(-c3ccccc3F)c3c2CCS(=O)(=O)O3)cc1 | inactive | 0.46 µM | 2.62 | inhibition [3]: Active; inhibition [4]: Active; inhibition [5]: Active; viability at 24 h, 50 µM [7]: > 90%; viability at 24 h, up to 50 µM [8]: > 90%; Activity (PC-12): >70%; Ki (Cholinesterase [9]): 0.145 µM
O=S1(=O)CCc2c(C3CC3)nn(-c3ccccc3F)c2O1 | inactive | 0.199 µM | 2.09 | inhibition [5]: Active
COc1ccc(-c2nn(-c3ccccc3F)c3c2C(c2ccc(Br)c(C)c2)CS(=O)(=O)O3)cc1 (configuration not stated) | inactive | 4.33 µM | 2.91 | 
Cc1nn(-c2ccccc2F)c2c1C(c1ccc(F)cc1)CS(=O)(=O)O2 (configuration not stated) | inactive | 6.1 µM | 2.13 | 
COc1ccc(-c2nn(-c3ccccc3Cl)c3c2CCS(=O)(=O)O3)cc1 | inactive | 0.42 µM | 3.04 | inhibition [10]: Active; inhibition [11]: Active; inhibition [12]: Active; viability at 24 h, 50 µM [7]: > 90%; viability at 24 h, up to 50 µM [8]: > 90%; Activity (PC-12): >70%; Ki (Cholinesterase [9]): 0.06 µM
Cc1nn(-c2ccccc2)c2c1C(/C=C/c1cccc(C#N)c1)CS(=O)(=O)O2 (configuration not stated) |  | 10.6 µM |  | IC50 (Acetylcholinesterase): 16.3 µM
O=S1(=O)CC(c2ccc(F)cc2)c2c(C3CC3)nn(-c3ccccc3F)c2O1 (configuration not stated) | inactive | 7.76 µM | 1.76 | 
COc1cccc(C2CS(=O)(=O)Oc3c2c(C2CC2)nn3-c2ccccc2F)c1 (configuration not stated) | inactive | 3.47 µM | 2.01 | 
CC1=NN2C(=O)Oc3c(Cl)cc(Cl)cc3C2C1 (configuration not stated) |  |  |  | IC50 (Acetylcholinesterase): > 20 µM
O=S1(=O)CC(c2cccc(C(F)(F)F)c2)c2c(C3CC3)nn(-c3cccc(F)c3)c2O1 (configuration not stated) | inactive | 4.62 µM | 2.73 | 
